Measured values from PMC9138505, “Small Molecule 20S Proteasome Enhancer Regulates MYC Protein Stability and Exhibits Antitumor Activity in Multiple Myeloma” (Biomedicines, 2022).

How the values were obtained:
c-MYC = c-MYC degradation ELISA in L363 cells; format: cell-based, human; details: various concentrations, 4 h
Procedure: ELISA: c-MYC degradation in L363 and H929 cells. L363 cells were grown in T-25 flasks in RPMI-1640 medium supplemented with 15% heat-inactivated fetal bovine serum (FBS) and 1% penicillin/streptomycin at 37 °C and 5% CO2. H929 cells were grown in T-25 flasks in RPMI-1640 medium supplemented with 10% FBS, 0.05 mM 2-mercaptoethanol, and 1% penicillin/streptomycin. Cells were treated with DMSO, TCH-165, or bortezomib (BTZ) at the indicated concentrations for 4 h (0.1% final DMSO concentration). Following the 4-hour treatment, cells were pelleted, washed with chilled PBS buffer, and resuspended in chilled lysis buffer (10 mM Tris, 100 mM NaCl, 1 mM EDTA, 1 mM EGTA, 1 mM NaF, 20 mM Na4P2O7, 2 mM Na3VO4, 1% Triton X-100, 10% glycerol, 0.1% SDS, and 0.5% deoxycholate; pH 7.4) supplemented with Complete Mini Protease Inhibitor Cocktail (Sigma Aldrich). The lysate was clarified by centrifugation at 5000 rpm (4 °C) for 15 min. Total protein of the lysate was quantified by bicinchoninic acid assay (BCA assay, Thermofisher Scientific; Waltham, MA, USA). and normalized to 1.5 mg/mL total protein. The supplied protocol for the human c-MYC (Total) ELISA Kit (Invitrogen; Waltham, MA, USA) was used to determine the total c-MYC concentration of the lysates. Prior to loading lysate into ELISA plate wells, lysate (5 µL) was diluted into 45 µL of supplied standard diluent buffer.

[1] = system: human constitutive 20S proteasome; assay: Proteasome activity in purified protein assay (fluorogenic AMC peptide substrates); format: biochemical
Procedure: The proteolytic activity of the 20S proteasome can be monitored in vitro by measuring the cleavage of fluorogenic peptide substrates for the different catalytic sites as an increase in 7-amino-4-methylcoumarin (AMC) fluorescence over time, as previously reported. Purified human 20S proteasome was pre-treated with a concentration range of TCH-165 or DMSO (vehicle control) for 15 min at 37 °C, on a black flat/clear bottom 96-well plate containing 1 nM of human constitutive 20S proteasome in 50 mM Tris-HCl pH 7.5. Fluorogenic substrates, Suc-LLVY-AMC (CT-L activity, 10 μM), Z-LLE-AMC (Casp-L activity, 10 μM), Boc-LRR-AMC (Tryp-L activity, 20 μM), were then added and the enzymatic activity measured at 37 °C on a SpectraMax M5e spectrometer by measuring an increase in the fluorescence unit per minute for 1 h at 380–460 nm. The release of AMC was monitored as fluorescence over time for 1 h and the resulting 20S activity changes were determined by comparing to the untreated 20S and calculating the fold-increase in activity over vehicle control for each analog at a given concentration.

[2] = system: RPMI-8226, L363 and H929 cells; assay: Assessment of apoptosis, Caspase-Glo 3/7 assay; format: cell-based, human; details: all three MM cell lines, 24 h (Figure S1)
Procedure: Apoptosis was evaluated with the Caspase-Glo 3/7 assay kit (Promega; Madison, WI, USA) according to the manufacturer’s instructions. […] Staurosporine (81590, Cayman), an apoptosis inducer, was used as a positive control at 10 μM concentration for 3 h of incubation. After the incubation, the caspase reagent was added to the cells and incubated at 37 °C for 30 min. The luminescent signal was detected by the EnVision plate reader (PerkinElmer; Waltham, MA, USA) and the data were analyzed by Graph Pad Prism (9.2.0, Graph Pad Software Inc., San Diego, CA, USA).

[3] = system: MYC Reporter (Luc)-HCT-116 cells; assay: MYC-Luc reporter assay; format: cell-based
Procedure: The MYC Reporter (Luc)-HCT-116 Cell line, Catalog #60520, was bought from BPS Bioscience. MYC reporter (Luc)-HCT-116 cells were seeded in a white, clear bottom, 96-well microplate at 25,000 cells/well, in McCoy’s 5A media supplemented with 10% FBS and 1% penicillin/streptomycin. The plate was incubated at 37 °C with 5% CO2 overnight. The next day, cells were treated with 0.0 µM, 0.1 µM, 1.0 µM, 2.5 µM, 5.0 µM, 10 µM, or 20 µM TCH-165, in Opti-MEM supplemented with 0.5% FBS, 1% non-essential amino acids, 1 mM Sodium Pyruvate and 1% penicillin/streptomycin. The plate was incubated at 37 °C with 5% CO2 for 16 h. Firefly luminescence was measured using the One-Step Luciferase Assay System from BPS Biosciences.

MYC = MYC degradation in MM cells, Western blot; format: cell-based, human; details: RPMI-8226 cells
Procedure: Western blot: RPMI-8226 cells were grown to approximately 80% confluency in a T-75 flask. Cells were treated with either vehicle (DMSO) or TCH-165 at the indicated concentrations, for 4 h. In experiments involving bortezomib, cells were pre-treated with bortezomib (5 μM) for 1 h before adding TCH-165 or vehicle for a further 4 h. Cells were pelleted and washed with chilled PBS buffer (2X) and resuspended in chilled RIPA buffer supplemented with protease inhibitor cocktail (Sigma Aldrich; Burlington, MA, USA). Total protein was quantified by bicinchoninic acid assay (BCA assay, Thermofisher Scientific; Waltham, MA, USA), normalized to 2 mg/mL and boiled with 5X SDS loading buffer. Lysates (30 μg) were resolved on a 4–20% Tris/glycine gel and transferred to a PVDF membrane. The membrane was probed with anti MYC (Cell Signaling; cat#5605; Danvers, MA, USA) and anti-GAPDH-HRP (Santa Cruz; sc-47724 HRP; Dallas TX, USA) antibodies.

[4] = Pharmacokinetic assessment in dogs; format: in vivo; details: male, beagle, dog
Procedure: (§1) Adult beagle dogs (male, 12 months of age, n = 3), weighing approximately 10 kg, received a […] of the test compound at 500 mg bid delivered in capsule form. Blood (approximately 2.5 mL) was collected into lithium heparin tubes at 0, 1 h, 2 h, 4 h, 8 h, and 24 h post-day 1 and post-day 5 dose for PK assessment using mass spectrometry. Blood (approximately 2 mL) was also collected and divided into EDTA and standard clot tubes on day 6 post-dose for determination of CBC and clinical chemistry parameters, respectively, and analyzed at the Michigan State University Veterinary Diagnostic Laboratory. Clinical observations were conducted daily on non-dosing days and twice on dosing days.

[5] = Tolerance in dogs (clinical observations, body weight, CBC, clinical chemistry); format: in vivo, beagle dogs; details: beagles
Procedure: as §1

[6] = blood, dogs, 50 mg/kg bid oral capsule

## CCOC(=O)[C@]1(c2ccccc2)N=C(c2ccc(OC)cc2)N(Cc2ccccc2)[C@@H]1c1ccc(NCc2ccccc2)cc1 [TCH-165]
c-MYC
  MYC clearance (percent MYC remaining): induced clearance of MYC
[1]; CT-L site (b-5), substrate Suc-LLVY-AMC
  EC200 (concentration at which TCH-165 doubles 20S activity): 1.5 µM
[1]; CT-L site, Suc-LLVY-AMC
  Fold^M (maximum fold enhancement of 20S activity): 810%
[1]; Casp-L site, Z-LLE-AMC
  Fold^M (maximum fold enhancement of 20S activity): 1290%
[1]; Tryp-L site, Boc-LRR-AMC
  Fold^M (maximum fold enhancement of 20S activity): 500%
[2]
  induction of apoptosis (caspase 3/7 activity): induction of apoptosis
[3]; Homo sapiens, stably transfected HCT-116 cells, 16 h, 95% CI 2.46–2.95, read-out: EC50 of decrease of MYC-mediated luciferase transcription
  EC50: 2.57 µM
[3]; TCH-165 3 μM after bortezomib 10 nM, 2 h pre-incubation
  MYC-mediated luciferase transcription with addition of bortezomib: restored luciferase transcription back to the levels of the vehicle control
MYC; TCH-165 5 μM with BTZ 5 μM
  efficacy of TCH-165 on MYC protein levels with proteasome blocked: nearly completely abrogated
MYC; TCH-165 5 μM, 4 h
  MYC protein levels compared to vehicle control: reduced MYC protein levels
[4]; [6]
  Cmax: 1600 nM
  Tmax: 24 h
[4]; plasma, dogs (n=3), means, 50 mg/kg bid oral
  Cmax: 1570 nM
[4]; plasma, dogs (n=3), means, 50 mg/kg bid oral, read-out: AUC (nM) (0-24 for dogs)
  AUC: 19.8 µM·h
[5]; 50 mg/kg bid oral capsule, five consecutive days
  body weight change: < 1%
[5]; 50 mg/kg bid oral capsule, five days
  clinical observations, body weight, complete blood counts and clinical chemistry panel compared to pre-dose status: no significant changes
[5]; day 5 of administration
  notable change in the clinical chemistry profile: increase in plasma iron concentrations
